“And” between values parts separate entries of the source, which are not always exact repeats. Identical values can stand only once.
Legend:
Homo sapiens [1] = organism: Homo sapiens; experiment: Compound was tested for its inhibitory concentration against human leukemic lymphoblasts (CEM Cells); Mean of two assays; format: functional; conditions: CCRF-CEM
Mus musculus [2] = experiment: Median Survival days of mice infected with L1210 leukemia cells at dose 20 mg/kg relative to that of 9 days for control in expt 1; format: functional
L1210 [3] = experiment: Compound was tested for its inhibitory concentration to inhibit the growth of wild type L1210 cells.; format: functional, cell-based, Mus musculus
Dihydrofolate reductase = molecular target: T1, Dihydrofolate reductase (Mus musculus, UniProt P00375); experiment: biochemical
T1 sequence (P00375 whole entry): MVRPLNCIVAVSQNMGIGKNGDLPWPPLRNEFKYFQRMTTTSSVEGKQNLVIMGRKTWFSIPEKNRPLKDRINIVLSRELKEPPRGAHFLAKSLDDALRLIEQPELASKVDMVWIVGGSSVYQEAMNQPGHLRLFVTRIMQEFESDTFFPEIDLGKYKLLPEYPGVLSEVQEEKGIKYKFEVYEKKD
Description: Compound was tested for its inhibitory concentration to inhibit the enzyme Dihydro Folate Reductase (DHFR) from murine L1210 leukemia cells.

Mus musculus [4] = experiment: Median Survival days of mice infected with L1210 leukemia cells at dose 10 mg/kg relative to that of 9 days for control in expt 1; format: functional
Mus musculus [5] = experiment: Increase in life span of mice with L1210 leukemia cells at a dose of 7.5 mg/kg in exp 2; format: functional
Mus musculus [6] = experiment: Increase in life span of mice with L1210 leukemia cells at a dose of 15 mg/kg in exp 2; format: functional
Homo sapiens [7] = organism: Homo sapiens; experiment: Compound was tested for its inhibitory concentration against human leukemic lymphoblasts (CEM Cells) and a resistant subline (CEM / MTX); Mean of two assays; format: functional; conditions: CCRF-CEM
Mus musculus [8] = organism: Mus musculus; experiment: Compound was tested against weight change in mice with L1210 leukemia cells on 10 th Day at Dose 7.5 mg / kg; conditions: at 7.5 mg/kg
Mus musculus [9] = experiment: Median Survival days of mice infected with L1210 leukemia cells at dose 15 mg/kg relative to that of 10 days for control in expt 2; format: functional
Mus musculus [10] = experiment: Increase in life span of mice with L1210 leukemia cells at a dose of 10 mg/kg in exp 2; format: functional
L1210 [11] = experiment: Compound was tested for its inhibitory concentration to inhibit the growth of wild type L1210 cells and a subline (L1210 / R81).; format: functional, cell-based; conditions: Mus musculus
Mus musculus [12] = experiment: Median Survival days of mice infected with L1210 leukemia cells at dose 7.5 mg/kg relative to that of 10 days for control in expt 2; format: functional
Mus musculus [13] = organism: Mus musculus; experiment: Compound was tested against weight change in mice with L1210 leukemia cells on 7 th Day at Dose 10 mg / kg; format: functional; conditions: at 10 mg/kg
[14] = molecular target: T2, Dihydrofolate reductase (Mus musculus) (UniProt P00375); conditions: L1210
T2 sequence (whole entry): T1 sequence (P00375 whole entry)
Description: Compound was tested for inhibition of the enzyme DiHydroFolate Reductase (DHFR) from murine L1210 leukemia cells

Mus musculus [15] = organism: Mus musculus; experiment: Compound was tested against weight change in mice with L1210 leukemia cells on 7 th Day at Dose 15 mg / kg; format: functional; conditions: at 15 mg/kg
Mus musculus [16] = experiment: Median Survival days of mice infected with L1210 leukemia cells at dose 10 mg/kg relative to that of 10 days for control in expt 2; format: functional
Mus musculus [17] = organism: Mus musculus; experiment: Compound was tested against weight change in mice with L1210 leukemia cells on 10 th Day at Dose 20 mg / kg; conditions: at 20 mg/kg
Mus musculus [18] = experiment: Increase in life span of mice with L1210 leukemia cells at a dose of 40 mg/kg; format: functional
Mus musculus [19] = organism: Mus musculus; experiment: Compound was tested against weight change in mice with L1210 leukemia cells on 10 th Day at Dose 80 mg / kg; conditions: at 80 mg/kg
Mus musculus [20] = experiment: Increase in life span of mice with L1210 leukemia cells at a dose of 20 mg/kg; format: functional
Mus musculus [21] = experiment: Median Survival days of mice infected with L1210 leukemia cells at dose 80 mg/kg relative to that of 9 days for control; format: functional
Homo sapiens [22] = organism: Homo sapiens; experiment: Compound was tested for its inhibitory concentration against human leukemic lymphoblasts (CEM Cells) and a resistant subline (CEM / MTX).; format: functional; conditions: CCRF-CEM
Mus musculus [23] = experiment: Median Survival days of mice infected with L1210 leukemia cells at dose 40 mg/kg relative to that of 9 days for control; format: functional
Mus musculus [24] = experiment: Median Survival days of mice infected with L1210 leukemia cells at dose 20 mg/kg relative to that of 9 days for control; format: functional
Homo sapiens [25] = organism: Homo sapiens; experiment: Compound was tested for its inhibitory concentration against human leukemic lymphoblasts (CEM Cells).; format: functional; conditions: CCRF-CEM
Mus musculus [26] = experiment: Increase in life span of mice with L1210 leukemia cells at a dose of 80 mg/kg; format: functional
Mus musculus [27] = organism: Mus musculus; experiment: Compound was tested against weight change in mice with L1210 leukemia cells on 7 th Day at Dose 100 mg / kg; format: functional; conditions: at 100 mg/kg
Mus musculus [28] = experiment: Median Survival days of mice infected with L1210 leukemia cells at dose 100 mg/kg relative to that of 9 days for control in expt 2; format: functional
Mus musculus [29] = experiment: Increase in life span of mice with L1210 leukemia cells at a dose of 100 mg/kg; format: functional
Mus musculus [30] = experiment: Median Survival days of mice infected with L1210 leukemia cells at dose 80 mg/kg relative to that of 9 days for control in expt 1; format: functional
Mus musculus [31] = experiment: Increase in life span of mice with L1210 leukemia cells at a dose of 80 mg/kg in exp 1; format: functional
Mus musculus [32] = experiment: Median Survival days of mice infected with L1210 leukemia cells at dose 40 mg/kg relative to that of 9 days for control in expt 1; format: functional
Mus musculus [33] = organism: Mus musculus; experiment: Compound was tested against weight change in mice with L1210 leukemia cells on 10 th Day at Dose 40 mg / kg; conditions: at 40 mg/kg
Mus musculus [34] = experiment: Increase in life span of mice with L1210 leukemia cells at a dose of 40 mg/kg in exp 1; format: functional
Mus musculus [35] = experiment: Median Survival days of mice infected with L1210 leukemia cells at dose 80 mg/kg relative to that of 9 days for control in expt 2; format: functional
L1210 [36] = experiment: Compound was tested for its inhibitory concentration to inhibit the growth of wild type L1210 cells; format: functional, cell-based; conditions: Mus musculus
L1210 [37] = experiment: Compound was tested for its inhibitory concentration to inhibit the growth of wild type L1210 cells and a subline (L1210 / R81); Mean of two assays; format: functional, cell-based; conditions: Mus musculus
Mus musculus [38] = experiment: Increase in life span of mice with L1210 leukemia cells at a dose of 60 mg/kg in expt 1; format: functional
Mus musculus [39] = experiment: Increase in life span of mice with L1210 leukemia cells at a dose of 40 mg/kg in expt 1; format: functional
Mus musculus [40] = experiment: Increase in life span of mice with L1210 leukemia cells at a dose of 80 mg/kg in expt 1; format: functional
Mus musculus [41] = experiment: Median Survival days of mice infected with L1210 leukemia cells at dose 60 mg/kg relative to that of 9 days for control in expt 2; format: functional
Mus musculus [42] = experiment: Increase in life span of mice with L1210 leukemia cells at a dose of 100 mg/kg in expt 1; format: functional
Mus musculus [43] = organism: Mus musculus; experiment: Compound was tested against weight change in mice with L1210 leukemia cells on 10 th Day at Dose 60 mg / kg; conditions: at 60 mg/kg

## Nc1nc(N)c2nc(CNc3ccc(C(=O)NC(CCC(=O)Nc4ccccc4)C(=O)O)cc3)cnc2n1 (centres undefined)
Homo sapiens [1]
  IC50: 180 nM
Mus musculus [2]
  Survival: 12 days
L1210 [3]; Mus musculus, L1210
  IC50: 3.5 nM
L1210 [3]; l1210
  IC50: 3.6 nM
Dihydrofolate reductase
  IC50: 60 nM
Mus musculus [4]
  Survival: 12 days
Mus musculus [5]
  ILS at 7.5 mg/kg: 30%
Mus musculus [6]
  ILS at 15 mg/kg: 30%
Homo sapiens [7]
  IC50: 4.7 µM
Mus musculus [8]
  Weight change: 4%
Mus musculus [9]
  Survival: 13 days
Mus musculus [10]
  ILS at 10 mg/kg: 50%
L1210 [11]
  IC50: 10 µM
Mus musculus [12]
  Survival: 13 days
Mus musculus [13]
  Weight change: 17% and 6%
[14]
  IC50/[E]: 1.5
Mus musculus [15]
  Weight change: 2%
Mus musculus [16]
  Survival: 15 days
Mus musculus [17]
  Weight change: 0%

## Nc1nc(N)c2nc(CNc3ccc(C(=O)NC(CCC(=O)N[C@]45C[C@H]6C[C@H](C[C@H](C6)C4)C5)C(=O)O)cc3)cnc2n1 (some centres undefined)
Mus musculus [18]
  ILS at 40 mg/kg: 0%
Mus musculus [19]
  Weight change: 17%
Mus musculus [20]
  ILS at 20 mg/kg: -11%
L1210 [3]; Mus musculus, L1210
  IC50: 680 nM
L1210 [3]; l1210
  IC50: 510 nM
Dihydrofolate reductase
  IC50: 100 nM
Mus musculus [21]
  Survival: 10 days
Homo sapiens [22]
  IC50: 16 µM
Mus musculus [23]
  Survival: 9 days
Mus musculus [24]
  Survival: 8 days
Homo sapiens [25]
  IC50: 4.5 µM
L1210 [11]
  IC50: 25 µM
[14]
  IC50/[E]: 2.5
Mus musculus [26]
  ILS at 80 mg/kg: 22%

## Nc1nc(N)c2nc(CNc3ccc(C(=O)NC(CCC(=O)NCc4c(Cl)cccc4Cl)C(=O)O)cc3)cnc2n1 (centres undefined)
Mus musculus [19]
  Weight change: 3% and 9%
Mus musculus [27]
  Weight change: -3%
Mus musculus [28]
  Survival: 15 days
L1210 [3]; Mus musculus, L1210
  IC50: 3.7 nM
L1210 [3]; l1210
  IC50: 2 nM
Mus musculus [29]
  ILS at 100 mg/kg: 67%
Dihydrofolate reductase
  IC50: 80 nM
Mus musculus [30]
  Survival: 14 days
Mus musculus [31]
  ILS at 80 mg/kg: 44%
L1210 [11]
  IC50: 61 µM
Mus musculus [32]
  Survival: 13 days
Mus musculus [33]
  Weight change: 6%
Mus musculus [34]
  ILS at 40 mg/kg: 56%
[14]
  IC50/[E]: 2
Mus musculus [26]
  ILS at 80 mg/kg: 44%
Mus musculus [35]
  Survival: 13 days

## CC(C)(C)NC(=O)CCC(NC(=O)c1ccc(NCc2cnc3nc(N)nc(N)c3n2)cc1)C(=O)O (centres undefined)
Homo sapiens [1]
  IC50: 5800 nM
Mus musculus [18]
  ILS at 40 mg/kg: 11%
Mus musculus [19]
  Weight change: 9%
L1210 [36]
  IC50: 32 nM
Mus musculus [20]
  ILS at 20 mg/kg: 0%
L1210 [3]; Mus musculus, L1210
  IC50: 120 nM
Dihydrofolate reductase
  IC50: 44 nM
Mus musculus [21]
  Survival: 11 days
Homo sapiens [22]
  IC50: 36 µM
Mus musculus [23]
  Survival: 10 days
Mus musculus [24]
  Survival: 9 days
L1210 [37]
  IC50: 22 µM
Mus musculus [33]
  Weight change: 7%
[14]
  IC50/[E]: 1.1
Mus musculus [26]
  ILS at 80 mg/kg: 22%
Mus musculus [17]
  Weight change: 17%

## CN(Cc1cnc2nc(N)nc(N)c2n1)c1ccc(C(=O)NC(CCC(=O)Nc2ccc3c(c2)OCO3)C(=O)O)cc1 (centres undefined)
Mus musculus [38]
  ILS at 60 mg/kg: 56%
Mus musculus [2]
  Survival: 11 days
Mus musculus [19]
  Weight change: 6% and -5%
Mus musculus [27]
  Weight change: 1%
Mus musculus [28]
  Survival: 16 days
Mus musculus [39]
  ILS at 40 mg/kg: 78%
L1210 [3]; Mus musculus, L1210
  IC50: 2.9 nM
Dihydrofolate reductase
  IC50: 42 nM
Mus musculus [30]
  Survival: 15 days
Mus musculus [40]
  ILS at 80 mg/kg: 67%
Mus musculus [41]
  Survival: 14 days
Mus musculus [42]
  ILS at 100 mg/kg: 78%
L1210 [11]
  IC50: 25 µM
Mus musculus [32]
  Survival: 13 days
Mus musculus [33]
  Weight change: 10%
Mus musculus [43]
  Weight change: 3%
[14]
  IC50/[E]: 1.1
Mus musculus [17]
  Weight change: 11%
Mus musculus [35]
  Survival: 16 days
